Values quoted from earlier work in US20240000694A1, “Methods and Materials for Matching Chemistry of Individuals and Human Melanin” (Northwestern University, priority 2022, published 2024).

- pKa of —COOH: 1.91
Compound: N[C@@H](CSSC[C@H](N)C(=O)O)C(=O)O [cystine]
